The species entered for data set [1] is Homo sapiens. As to the kind of experiment: Ratio Ki for inhibition of JAK3 (unknown origin) over TYK2 JH1 domain (unknown origin).
For data set [2], the species on record is Homo sapiens. As to the kind of experiment: Ratio Ki for inhibition of JAK1 (unknown origin) over TYK2 JH1 domain (unknown origin).
For data set [3], the species on record is Homo sapiens. In words: Ratio Ki for inhibition of JAK2 (unknown origin) over TYK2 JH1 domain (unknown origin).
Data set [4] is described as follows: Efflux ratio of apparent permeability in human Caco-2 cells. (Caco-2 monolayers are a common model of the intestinal barrier.)
Data set [5] is described as follows: Plasma protein binding in human assessed as unbound fraction.
Data set [6] can be described thus: Thermodynamic solubility in fasted simulated intestinal fluid. Type of data set: physicochemical. Conditions: read-out: Therm_solubility.
Data set [7] deals with Blood. In words: Inhibition of IL-12- induced IFN-gamma production in mouse whole blood. Type of data set: functional, tissue-based. Conditions: for pIC50: Mus musculus, Blood.
In data set [8] the test system is Blood. As to the kind of experiment: Inhibition of IL-12- induced IFN-gamma production in human whole blood. Type of data set: functional, tissue-based. Conditions: for pIC50: Homo sapiens, Blood.
Data set [9] can be described thus: Plasma protein binding in mouse assessed as unbound fraction.
Data set [10] is described as follows: Kinetic solubility of compound at pH 7.4. Conditions: buffer.
Data set [11] addresses Non-receptor tyrosine-protein kinase TYK2 (Homo sapiens, UniProt P29597).
Description: Inhibition of TYK2 JH1 domain (unknown origin) measured in presence of 10 uM ATP
Data set [12] in a line: Thermodynamic solubility in simulated gastric fluid. The format is physicochemical. The settings on record: read-out: Therm_solubility.

pIC50, pKi: −log10 of the molar value. Converted amounts (≈) assume the structure as drawn.

Sequence of Non-receptor tyrosine-protein kinase TYK2 (P29597 whole entry): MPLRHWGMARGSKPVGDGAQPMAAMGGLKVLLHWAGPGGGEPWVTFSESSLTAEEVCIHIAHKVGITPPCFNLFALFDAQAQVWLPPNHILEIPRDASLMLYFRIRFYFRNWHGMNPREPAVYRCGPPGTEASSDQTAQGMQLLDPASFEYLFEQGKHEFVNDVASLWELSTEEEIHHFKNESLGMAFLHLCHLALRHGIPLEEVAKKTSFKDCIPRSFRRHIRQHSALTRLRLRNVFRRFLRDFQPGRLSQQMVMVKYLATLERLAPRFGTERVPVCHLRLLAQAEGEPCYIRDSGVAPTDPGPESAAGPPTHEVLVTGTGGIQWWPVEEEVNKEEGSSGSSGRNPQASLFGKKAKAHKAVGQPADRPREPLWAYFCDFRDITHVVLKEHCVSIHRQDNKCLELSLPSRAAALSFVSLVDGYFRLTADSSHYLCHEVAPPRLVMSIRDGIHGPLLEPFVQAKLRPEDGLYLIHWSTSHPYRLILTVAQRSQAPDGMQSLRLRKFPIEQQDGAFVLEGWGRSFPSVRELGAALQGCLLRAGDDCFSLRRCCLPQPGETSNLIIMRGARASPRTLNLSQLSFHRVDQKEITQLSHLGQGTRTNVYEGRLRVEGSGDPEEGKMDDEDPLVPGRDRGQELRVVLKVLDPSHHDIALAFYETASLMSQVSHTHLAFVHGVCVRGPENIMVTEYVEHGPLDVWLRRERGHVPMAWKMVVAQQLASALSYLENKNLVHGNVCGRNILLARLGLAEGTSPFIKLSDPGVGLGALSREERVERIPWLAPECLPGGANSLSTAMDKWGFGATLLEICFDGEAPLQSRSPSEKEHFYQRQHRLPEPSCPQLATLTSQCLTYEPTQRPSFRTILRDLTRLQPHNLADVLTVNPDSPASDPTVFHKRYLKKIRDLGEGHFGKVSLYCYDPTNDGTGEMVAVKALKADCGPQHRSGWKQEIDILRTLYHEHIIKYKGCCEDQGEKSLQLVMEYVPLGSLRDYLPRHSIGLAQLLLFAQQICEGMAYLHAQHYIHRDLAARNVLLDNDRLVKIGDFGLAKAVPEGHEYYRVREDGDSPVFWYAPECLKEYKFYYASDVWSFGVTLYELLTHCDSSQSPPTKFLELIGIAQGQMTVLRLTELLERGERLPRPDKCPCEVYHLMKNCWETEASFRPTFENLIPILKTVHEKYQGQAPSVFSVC

In the case of `CN1CCN(C(=O)Cc2ccc(Nc3nc(-c4c(F)cccc4F)nc4c3C(=O)NC4)cc2)CC1`, the values for the Ratio Ki in the data set listed under Homo sapiens [1], in the data set listed under Homo sapiens [2] and in the data set listed under Homo sapiens [3] were 10, 89 and 52, respectively.
Regarding `O=C1NCc2nc(-c3c(F)cccc3F)cc(Nc3ccc(C(=O)N4CCCC4)cn3)c21`, the figures for the Ratio Ki in the data set listed under Homo sapiens [1], in the data set listed under Homo sapiens [2] and in the data set listed under Homo sapiens [3] were 3.3, 53 and 23, respectively.
One may read the efflux ratio as a quotient of directional permeabilities that is used to spot active efflux. In general, fraction unbound refers to the share of the substance not bound to proteins or other matrix. Usually pIC50 stands for the IC50 on a negative log10 scale, so that one unit is a factor of ten. A high value points to a small IC50. As usually defined, the kinetic solubility is solubility judged after dilution from a stock solution rather than from solid. Turning to `O=C1NCc2nc(-c3c(F)cccc3F)cc(Nc3ccc(C(=O)N4CCOCC4)cc3)c21`, in [4], the efflux ratio came to 9.1. The Ratio Ki in the data set filed under Homo sapiens [1] came out at 8.6; in the data set listed under Homo sapiens [2], 92; in the data set filed under Homo sapiens [3], 35. Also, the fraction unbound in data set [5] came to 0.25; in data set [9], 0.24. Besides, in data set [6], the solubility thermodynamic is 148 µM (≈ 66.7 µg/mL). Also, the figures for the fIC50 in the data set with Blood [7] and in the data set on Blood [8] were 0.86 µM and 0.16 µM, respectively. Further, the pIC50 in the data set with Blood [7] is 5.44; with Blood [8] it was 6.21. Moreover, the solubility (kinetic) in data set [10] was found to be 170 µM (≈ 76.6 µg/mL).
With `CCNC(=O)c1ccc(Nc2cc(-c3c(F)cccc3Cl)nc3c2C(=O)NC3)nc1`, the Ratio Ki in the data set filed under Homo sapiens [1] was found to be 1.8; in the data set filed under Homo sapiens [2] it was 7.3; in the data set filed under Homo sapiens [3] it was 12.
With `O=C1NCc2nc(-c3c(F)cccc3F)cc(Nc3ccc(N4CCOCC4)cn3)c21`, the efflux ratio in data set [4] was 0.58. Moreover, the Ratio Ki in the data set listed under Homo sapiens [1] stood at 25; in the data set listed under Homo sapiens [2], 160; in the data set filed under Homo sapiens [3] it was 120. In [10], this compound came in with a solubility (kinetic) of 12 µM (≈ 5.08 µg/mL).
Taken in the same sequence, the figures for `O=C1NCc2nc(-c3c(F)cccc3F)cc(Nc3ccc(C(=O)N4CC[C@H](O)C4)cc3)c21` were 60, 14, 110, 110 and 290 µM (≈ 131 µg/mL).
For `CCNC(=O)C(C)(O)c1ccc(Nc2nc(-c3c(F)cccc3F)nc3c2C(=O)NC3)cc1` (stereo in doubt; 13a) [listing 1 of 2 here], the Ratio Ki is 43 in the data set filed under Homo sapiens [1], 87 in the data set listed under Homo sapiens [2] and 300 in the data set listed under Homo sapiens [3].
In the case of `O=C1NCc2nc(-c3c(F)cccc3F)nc(Nc3ccc(C4CCNC4=O)cc3)c21` (stereo in doubt; 14a), the values for the Ratio Ki in the data set filed under Homo sapiens [1], in the data set listed under Homo sapiens [2] and in the data set filed under Homo sapiens [3] were 4, 37 and 35, respectively.
One may read the pKi as the negative decadic logarithm of the Ki, by convention in mol/L. `O=C1NCc2nc(-c3c(F)cccc3F)nc(Nc3ccc(C4CCNC4=O)cc3)c21` (stereo in doubt; 14b) [listing 1 of 2 here] had a pKi in data set [11] of 8.96.
Consider `O=C1NCc2nc(-c3c(F)cccc3F)cc(Nc3ccc(C(=O)N4CCOCC4)cn3)c21`, for which the results for the Ratio Ki in the data set filed under Homo sapiens [1], in the data set filed under Homo sapiens [2] and in the data set filed under Homo sapiens [3] were 2.3, 16 and 18, respectively.
Turning to `NC(=O)c1ccc(NC(=O)c2ccc[nH]c2=O)cc1`, the Ratio Ki in the data set listed under Homo sapiens [1] stood at 2.3; in the data set listed under Homo sapiens [2], 1.4; in the data set listed under Homo sapiens [3] it was 1.1.
Take `CCNC(=O)c1ccc(Nc2cc(-c3c(F)cccc3F)nc3c2C(=O)NC3)nc1`: in [4], the efflux ratio was determined as 7.2. Also, the Ratio Ki in the data set filed under Homo sapiens [1] is 24; in the data set filed under Homo sapiens [2] it was 84; in the data set listed under Homo sapiens [3], 170. Besides, the fraction unbound is 0.17 in data set [5] and 0.16 in data set [9]. Besides, the solubility thermodynamic in [6] was 15 µM (≈ 6.14 µg/mL); in data set [12], 255 µM (≈ 104 µg/mL). For the same compound, the fIC50 in the data set with Blood [7] came to 0.19 µM; with Blood [8], 0.27 µM. The figures for the pIC50 in the data set with Blood [7] and in the data set on Blood [8] were 5.92 and 5.80, respectively. For the same compound, in [10], the solubility (kinetic) is 3.1 µM (≈ 1.27 µg/mL).
`CC(C)c1nc(Nc2ccc(C(=O)O)cc2)c2c(=O)[nH]ccc2n1`: the values for the Ratio Ki in the data set filed under Homo sapiens [1], in the data set listed under Homo sapiens [2] and in the data set listed under Homo sapiens [3] were 1.3, 5.3 and 2.5, respectively.
Consider `CCNC(=O)C(C)(O)c1ccc(Nc2nc(-c3c(F)cccc3F)nc3c2C(=O)NC3)cc1` (stereo in doubt; 13b) [listing 1 of 2 here], for which the Ratio Ki in the data set listed under Homo sapiens [1] was 13; in the data set listed under Homo sapiens [2], 27; in the data set listed under Homo sapiens [3] it was 123.
Regarding `O=C1NCc2nc(-c3c(F)cccc3F)nc(Nc3ccc(C4CCCNC4=O)cc3)c21` (stereo in doubt; 15a), the Ratio Ki turned out to be 19 in the data set listed under Homo sapiens [1], 77 in the data set listed under Homo sapiens [2] and 83 in the data set filed under Homo sapiens [3].
With `O=C1NCc2nc(-c3c(F)cccc3F)nc(Nc3ccc(C4CCCNC4=O)cc3)c21` (stereo in doubt; 15b) [listing 1 of 2 here], in data set [11], the pKi is 8.41.
Consider `O=C1NCc2nc(-c3c(F)cccc3F)cc(Nc3ccc(N4CCOCC4=O)cn3)c21`, for which the efflux ratio in data set [4] came to 7.8. Further, the Ratio Ki in the data set filed under Homo sapiens [1] came out at 13; in the data set filed under Homo sapiens [2], 80; in the data set filed under Homo sapiens [3], 77. Besides, the figures for the solubility thermodynamic in data set [6] and in [12] were 24 µM (≈ 10.5 µg/mL) and 418 µM (≈ 183 µg/mL), respectively. The kinetic solubility in data set [10] came to 8.9 µM (≈ 3.89 µg/mL).
`O=C1NCc2nc(-c3c(F)cccc3F)cc(Nc3ccc(N4CCC(F)(F)CC4)cn3)c21`: the efflux ratio in data set [4] was 0.68. Moreover, the Ratio Ki is 32 in the data set filed under Homo sapiens [1], 400 in the data set filed under Homo sapiens [2] and 370 in the data set filed under Homo sapiens [3]. The compound also showed a kinetic solubility in data set [10] of 2.4 µM (≈ 1.1 µg/mL).
As to `CCNC(=O)C(C)(O)c1ccc(Nc2nc(-c3c(F)cccc3F)nc3c2C(=O)NC3)cc1` (stereo in doubt; 13b) [listing 2 of 2 here], the pKi in [11] is 8.47.
`CCNC(=O)C(C)(O)c1ccc(Nc2nc(-c3c(F)cccc3F)nc3c2C(=O)NC3)cc1` (stereo in doubt; 13a) [listing 2 of 2 here]: in data set [4], the efflux ratio is 32.
Take `COc1ccc(Nc2nc(-c3c(F)cccc3F)nc3c2C(=O)NC3)cc1`: the Ratio Ki was 11 in the data set listed under Homo sapiens [1], 25 in the data set filed under Homo sapiens [2] and 240 in the data set filed under Homo sapiens [3].
Taken in the same sequence, the figures for `O=C1NCc2nc(-c3c(F)cccc3F)nc(Nc3ccc(C4CCNC4=O)cc3)c21` (stereo in doubt; 14b) [listing 2 of 2 here] were 15, 55 and 96.
Taken in the same sequence, the figures for `N#Cc1cccc(F)c1-c1cc(Nc2ccc(N3CCOCC3)cn2)c2c(n1)CNC2=O` were 170, 27 and 26.
`CCNC(=O)Cc1ccc(Nc2cc(-c3c(F)cccc3F)nc3c2C(=O)NC3)nc1`: the efflux ratio in data set [4] is 9.6. Further, the Ratio Ki in the data set listed under Homo sapiens [1] was determined as 5.7; in the data set filed under Homo sapiens [2], 39; in the data set filed under Homo sapiens [3], 72. The same compound displayed a solubility (kinetic) in data set [10] of 0.6 µM (≈ 0.254 µg/mL).
On to `O=C1NCc2nc(-c3c(F)cccc3F)nc(Nc3ccc(CC(=O)N4CCOCC4)cc3)c21`, for which the values for the Ratio Ki in the data set listed under Homo sapiens [1], in the data set listed under Homo sapiens [2] and in the data set filed under Homo sapiens [3] were 8.8, 59 and 47, respectively.
Taken in the same sequence, the figures for `CCNC(=O)c1ccc(Nc2cc(-c3c(F)cccc3C#N)nc3c2C(=O)NC3)nc1` were 69, 6.5 and 15.
The like results for `O=C1NCc2nc(-c3c(F)cccc3F)nc(Nc3ccc(CC(=O)N4CCN(CC(F)F)CC4)cc3)c21` were, in that order, 2.3, 31 and 24.
Taken in the same sequence, the figures for `NC(=O)c1cnc(-c2c(F)cccc2F)nc1Nc1ccc(CC(=O)O)cc1` were 95, 7.8 and 74.
`O=C1NCc2nc(-c3c(F)cccc3F)nc(Nc3ccc(C4CCCNC4=O)cc3)c21` (stereo in doubt; 15b) [listing 2 of 2 here]: the Ratio Ki was found to be 10 in the data set listed under Homo sapiens [1], 130 in the data set listed under Homo sapiens [2] and 84 in the data set listed under Homo sapiens [3].
`CCNC(=O)Cc1ccc(Nc2nc(-c3c(F)cccc3F)nc3c2C(=O)NC3)cc1`: the efflux ratio in [4] stood at 6.4. Moreover, the Ratio Ki was 4.6 in the data set filed under Homo sapiens [1], 17 in the data set filed under Homo sapiens [2] and 30 in the data set filed under Homo sapiens [3]. Also, the solubility (kinetic) in [10] turned out to be 1.2 µM (≈ 0.508 µg/mL).
Regarding `O=C1NCc2nc(-c3c(F)cccc3F)cc(Nc3ccc(N4CCC(O)CC4)cn3)c21`, the efflux ratio in [4] came to 1.5. Besides, the Ratio Ki in the data set filed under Homo sapiens [1] came out at 25; in the data set listed under Homo sapiens [2], 160; in the data set filed under Homo sapiens [3], 120. In [10], this compound gave a kinetic solubility of 65 µM (≈ 28.4 µg/mL).

(Values after ChEMBL document CHEMBL5104135, “Potent and selective TYK2-JH1 inhibitors highly efficacious in rodent model of psoriasis” (Bioorg Med Chem Lett, 2022).)
